According to PMC10587871 (Bioconjugate Chemistry, 2023):
Where a SMILES comes first, the peptide text is derived from it. The star is where a group is joined. 5FAM = O=C1OC2(c3ccc(O)cc3Oc3cc(O)ccc32)c2ccc(C(=O)*)cc21

test system: MM6 cell line; details: 5(6)-FAM-labeled peptides 10 μM, MM6 cells, 2 h, flow cytometry FITC channel, trypan blue quenching

Compound | Internalization (cellular uptake) profile
CC[C@H](C)[C@H](NC(=O)[C@H](C)NC(=O)[C@H](CCC(N)=O)NC(=O)[C@H](Cc1c[nH]c2ccccc12)NC(=O)[C@H](CC(C)C)NC(=O)[C@H](CCCCN)NC(=O)[C@H](CCCCN)NC(=O)[C@@H](NC(=O)[C@H](Cc1ccc(O)cc1)NC(=O)[C@H](C)NC(=O)c1ccc2c(c1)C(=O)OC21c2ccc(O)cc2Oc2cc(O)ccc21)[C@@H](C)O)C(=O)N[C@@H](CCCNC(=N)N)C(=O)N[C@@H](C)C(=O)N[C@@H](CCC(N)=O)C(=O)N[C@@H](CC(=O)O)C(=O)N[C@H](C(N)=O)C(C)C [RpfA (377–391)] (5FAM-AYTKKLWQAIRAQDV-NH2) | weak internalization profile
CC[C@H](C)[C@H](NC(=O)[C@H](CCCCN)NC(=O)[C@H](CCC(=O)O)NC(=O)[C@H](Cc1ccc(O)cc1)NC(=O)[C@@H]1CCCN1C(=O)[C@H](CC(=O)O)NC(=O)c1ccc2c(c1)C(=O)OC21c2ccc(O)cc2Oc2cc(O)ccc21)C(=O)NCC(=O)N[C@@H](C)C(=O)N[C@@H](CCC(=O)O)C(=O)N[C@@H](CC(C)C)C(=O)N[C@H](C(=O)N[C@@H](CCCCN)C(N)=O)C(C)C [Grol2 (63–78)] | highest cell internalization among MHC II binding epitopes
C[C@H](NC(=O)[C@H](C)NC(=O)[C@H](CCCCN)NC(=O)[C@H](CCCCN)NC(=O)[C@H](C)NC(=O)[C@@H]1CCCN1C(=O)[C@H](C)NC(=O)[C@H](CCCCN)NC(=O)c1ccc2c(c1)C(=O)OC21c2ccc(O)cc2Oc2cc(O)ccc21)C(=O)N[C@@H](C)C(=O)N[C@@H](CCCCN)C(N)=O [HBHA (185–194)] (5FAM-KAPAKKAAAK-NH2) | significant cellular uptake
CC(C)[C@H](NC(=O)[C@H](C)NC(=O)[C@@H](NC(=O)CNC(=O)[C@H](C)NC(=O)c1ccc2c(c1)C(=O)OC21c2ccc(O)cc2Oc2cc(O)ccc21)[C@@H](C)O)C(=O)N[C@@H](CCC(N)=O)C(=O)N[C@@H](CC(=O)O)C(=O)N[C@@H](CO)C(=O)N[C@@H](CCCNC(=N)N)C(=O)N[C@@H](CO)C(=O)N[C@@H](Cc1c[nH]cn1)C(=O)N[C@H](C(=O)N[C@@H](Cc1ccc(O)cc1)C(=O)N[C@@H](C)C(=O)N[C@@H](Cc1c[nH]cn1)C(N)=O)C(C)C [Rv1733c (63–77)] (5FAM-AGTAVQDSRSHVYAH-NH2) | weak internalization profile
